Earlier results in patent publication US20220331279A1, “THERAPEUTIC METHODS AND COMPOSITIONS FOR TREATING CANCER USING 6,8-BIS-BENZYLTHIO-OCTANOIC ACID AND A GLUTAMINASE INHIBITOR” (Rafael Pharmaceuticals, lnc., priority 2019, published 2022).

Details: after IV dosing; Pardee, T. S. et al., Clin. Cancer Res. 2014, 20, 5255-64

half-life: 1 to 2 h
Compound: O=C(O)CCCCC(CCSCc1ccccc1)SCc1ccccc1 (stereo not shown) [6,8-bis-benzylthio-octanoic acid]
